Test results taken from the supplement of paper PMC10702517.
± gives the standard deviation.

Assay: chemical recovery from spiked human plasma; higher = better extraction
Settings: pooled human plasma
[1] = extraction method: SPE only (HLB 96-well)
[2] = extraction method: solvent precipitation (ACN + hexane)
[3] = extraction method: PES+SPE (3 d PDMS equilibration then HLB SPE)
[4] = extraction method: SPE only (HLB 96-well), PES comparison experiment

SMILES	chemical recovery [1]	chemical recovery [2]	chemical recovery [3]	chemical recovery [4]
O=C(O)C(F)(F)C(F)(F)C(F)(F)C(F)(F)C(F)(F)C(F)(F)C(F)(F)C(F)(F)F [Perfluorononanoic-acid]	8.32 ± 1.8%	66.3 ± 5.1%	–	–
CC[C@H](C)C(=O)O[C@H]1C[C@H](O)C=C2C=C[C@H](C)[C@H](CC[C@@H](O)C[C@@H](O)CC(=O)O)[C@H]21 [Pravastatin]	28.1 ± 2.9%	67 ± 6.7%	31.6 ± 3.5%	58.6 ± 5.1%
c1ccc2c(c1)[nH]c1ncccc12 [Carboline]	40.3 ± 2.9%	72.2 ± 3.8%	28 ± 5.2%	–
O=S(=O)(O)CCC(F)(F)C(F)(F)C(F)(F)C(F)(F)C(F)(F)C(F)(F)C(F)(F)C(F)(F)F [8.2-Fluorotelomersulfonic-acid]	34 ± 2.1%	–	–	–
COC(=O)c1ccc(CNS(C)(=O)=O)cc1S(=O)(=O)NC(=O)Nc1nc(OC)cc(OC)n1 [Mesosulfuron-methyl]	41.4 ± 2.8%	74.9 ± 5.7%	40.3 ± 5.8%	–
Brc1cc(Br)c(Oc2c(Br)cc(Br)c(Br)c2Br)cc1Br [BDE183]	–	–	5.01 ± 7.1%	–
O=S1OC[C@@H]2[C@H](CO1)[C@@]1(Cl)C(Cl)=C(Cl)[C@]2(Cl)C1(Cl)Cl (stereo partly drawn) [alpha-Endosulfan]	0.649 ± 0.17%	13.6 ± 2.6%	–	–
COc1ccc2[nH]cc(CCNC(C)=O)c2c1 [Melatonin]	41.7 ± 7.2%	74.6 ± 2.9%	37.8 ± 2.6%	–
O=C(CC(C(=O)OC1CCCCC1)S(=O)(=O)O)OC1CCCCC1 (stereo not drawn) [Dicyclohexyl-sulfosuccinate]	44.3 ± 2.2%	–	57.7 ± 5.7%	–
Nc1nc2c(ncn2COCC(=O)O)c(=O)[nH]1 [Carboxy-aciclovir]	1.5 ± 1.3%	–	–	–
CC(=O)Nc1ccccc1 [Acetanilide]	42 ± 2.4%	80.1 ± 3.5%	40.3 ± 9.3%	–
N=C(NCCCCCCNC(=N)NC(=N)Nc1ccc(Cl)cc1)NC(=N)Nc1ccc(Cl)cc1 [Chlorohexidine]	–	54.5 ± 1.9%	–	–
CCCCOC(=O)CCCCCCCCC(=O)OCCCC [Dibutyl-sebacate]	28.7 ± 6.6%	–	–	–
CCCCC(CC)COC(=O)C=Cc1ccc(OC)cc1 (stereo not drawn) [Octyl-methoxycinnamate]	10.2 ± 2.1%	141 ± 20%	–	–
O=C1NS(=O)(=O)c2ccccc21 [Saccharin]	38.6 ± 7.1%	–	–	–
C#CCOS(=O)OC1CCCCC1Oc1ccc(C(C)(C)C)cc1 (stereo not drawn) [Propargite]	42.4 ± 10%	–	–	–
CNC(=O)Oc1ccccc1OC(C)C [Propoxur]	37.5 ± 0.59%	46.7 ± 3.7%	33.3 ± 8.7%	–
Cc1ccc2ccc3ccc(C)cc3c2c1 [3,6-dimethylphenanthrene]	2.62 ± 0.48%	71.5 ± 5%	36.5 ± 13%	–
Oc1ccc(C2(c3ccc(O)cc3)c3ccccc3-c3ccccc32)cc1 [Bisphenol-FL]	34.3 ± 5.9%	26.8 ± 4.5%	–	–
CC(C)(C)C(O)(CCc1ccc(Cl)cc1)Cn1cncn1 (stereo not drawn) [Tebuconazole]	–	77.8 ± 3.1%	–	–
CNCC[C@H](Oc1cccc2ccccc12)c1cccs1 [Duloxetine]	34.8 ± 2.4%	59.7 ± 5.1%	1.6 ± 0.45%	–
COc1cc2c(c(OC)c1OC)-c1ccc(OC)c(=O)cc1[C@@H](NC(C)=O)CC2 [Colchicine]	45 ± 3.9%	70 ± 2.5%	48.5 ± 3.6%	–

SMILES	chemical recovery [1]	chemical recovery [2]	chemical recovery [3]	chemical recovery [4]
C[N+](C)(C)CC1CO1 (stereo not drawn) [2,3-Epoxypropyltrimethylammonium]	0.76 ± 0.94%	–	0.728 ± 0.46%	–
CNC(=O)ON=C(C)C(C)SC (stereo not drawn) [Butocarboxim]	–	–	–	46.4 ± 8.7%
O=C(OCc1ccccc1)c1ccccc1O [Benzyl salicylate]	1.14 ± 0.085%	26.5 ± 2.6%	–	–
CC(C)OC(=O)Nc1cccc(Cl)c1 [Chlorpropham]	41.5 ± 2.7%	43.8 ± 4.5%	37.9 ± 13%	–
CCOP(=S)(OCC)Oc1nc(Cl)c(Cl)cc1Cl [Chlorpyrifos]	–	–	–	33.3 ± 7.2%
Oc1ccnc2ccccc12 [4-Hydroxyquinoline]	44.7 ± 1.7%	–	–	–
CC12CC1(C)C(=O)N(c1cc(Cl)cc(Cl)c1)C2=O (stereo not drawn) [Procymidone]	18.9 ± 2.2%	–	–	–
CC(C)(c1ccc(O)c(-c2ccccc2)c1)c1ccc(O)c(-c2ccccc2)c1 [Bisphenol-PH]	26.7 ± 7%	38 ± 5%	64.8 ± 12%	–
Cc1ccc2c(c1)c1cccc3ccc4cccc2c4c31 [10-Methylbenzo[e]pyrene]	0.0979 ± 0.085%	10.9 ± 1.3%	–	–
CC[C@@H](C(=O)[C@@H](C)[C@@H](O)[C@H](C)[C@@H]1O[C@@H]([C@@H](CC)C(=O)O)CC[C@@H]1C)[C@H]1O[C@]2(C=C[C@@H](O)[C@]3(CC[C@@](C)([C@H]4CC[C@](O)(CC)[C@H](C)O4)O3)O2)[C@H](C)C[C@@H]1C [Salinomycin]	26.7 ± 6.9%	51.9 ± 13%	–	–
CC(=O)N(CCN(C(C)=O)C(C)=O)C(C)=O [Tetraacetylethylenediamine]	–	–	29.2 ± 6.4%	–
O=C(O)CCCCCCCCC(=O)O [Sebacic-acid]	48.9 ± 13%	–	54.6 ± 13%	–
CC1CC(OC(=O)c2ccccc2O)CC(C)(C)C1 (stereo not drawn) [Homosalate]	0.169 ± 0.033%	41 ± 2.4%	–	–
COc1cc(Cl)c(OC)cc1N [4-Chloro-2,5-dimethoxyaniline]	26.5 ± 3.5%	55 ± 2.7%	11 ± 2.9%	–
CCC(C)(C)c1cc(-n2nc3ccccc3n2)c(O)c(C(C)(C)CC)c1 [UV-328]	1.74 ± 0.56%	–	–	–
N#Cc1ccccc1C#N [Phthalonitrile]	8.49 ± 8.2%	–	–	–
CN1CCN2c3ncccc3Cc3ccccc3C2C1 (stereo not drawn) [Mirtazapine]	30.4 ± 2.3%	69.4 ± 3.5%	0.274 ± 0.11%	29.9 ± 9.5%
Oc1cc(Cl)c(Cl)c(Cl)c1 [3,4,5-Trichlorophenol]	45 ± 3.1%	70.1 ± 3.9%	58.9 ± 7.8%	–
O=P(O)(OCCC(F)(F)C(F)(F)C(F)(F)C(F)(F)C(F)(F)C(F)(F)F)OCCC(F)(F)C(F)(F)C(F)(F)C(F)(F)C(F)(F)C(F)(F)F [6.2-Fluorotelomerphosphate-diester]	7.04 ± 2.1%	–	–	–
Nc1ccc(S(=O)(=O)Nc2nccs2)cc1 [Sulfathiazole]	31.1 ± 2.5%	69.2 ± 3.2%	–	51.1 ± 6.3%
Cc1cc(O)cc(C)c1[S+](C)[O-] (stereo not drawn) [Methiocarb-sulfoxide-phenol]	47.4 ± 5.3%	73.1 ± 4.4%	71.6 ± 6.9%	–
